This assay concerns free cholesterol absorption. Nature of the assay: short term hamster model tracking a bolus of gavaged radiolabeled cholesterol. Type of assay: in vivo, Male Golden Syrian hamsters. The source says:
To follow the movement of lipids across the intestinal wall leading to its subsequent appearance in the lymph, blood and liver, a short term hamster model which tracked a bolus of gavaged radiolabeled lipid was used. Free cholesterol absorption was examined in this hamster model to explore whether the cholesterol absorption inhibitor compound of Formula (XII): […]
Male Golden Syrian hamsters were fed a diet containing 0.5% cholesterol overnight and divided into groups of 5 animals. […] Two hours later, blood and liver samples were collected from each hamster. The blood was centrifuged for 20 minutes at 3000 rpm and the plasma was removed. Aliquots of the plasma and liver were analyzed for [^14C] radioactivity. Radioactive content was determined using a Beckman LSC (liquid […] counter).

[1] abbreviates: hamsters fed 0.5% cholesterol diet, gavage 1 h before [14C]-cholesterol, samples two hours later, Compound XII 3 mg/kg, cholestyramine 1 g/kg.
Where [2] appears, read: hamsters fed 0.5% cholesterol diet, samples two hours after [14C]-cholesterol, Compound XII 3 mg/kg, cholestyramine 1 g/kg.
Setting [3] is: specified dosage (Compound XII 3 mg/kg, cholestyramine 1 g/kg).

With `COc1ccc([C@@H]2[C@@H](CCCc3ccccc3)C(=O)N2c2ccc(OC)cc2)cc1` [Compound XII], under setting [1], the “Liver [14C]-cholesterol (DPM/gram of liver)” value is reported as 3755 ± 923 DPM/gram of liver and the “Plasma [14C]-cholesterol (Decays Per Minute (DPM)/milliter of plasma)” value is listed as 1438 ± 455 DPM/milliter of plasma. For the same compound, under setting [2], the “Liver [14C]-cholesterol, change versus Control (in brackets)” value is on record as −53% and the “Plasma [14C]-cholesterol, change versus Control (in brackets)” value is recorded as −71%. Under setting [3], the “reduction of liver (hepatic) [14C]-cholesterol levels” value stood at 53% and the “reduction of plasma [14C]-cholesterol levels” value was 71%.

Values taken from patent US20080261942A1, “COMBINATIONS OF BILE ACID SEQUESTRANT(S) AND STEROL ABSORPTION INHIBITOR(S) AND TREATMENTS FOR VASCULAR INDICATIONS” (SCHERING CORPORATION, priority 2001, published 2008).
